Data reported in patent publication US7892350B2, “Sacrificial agents for fly ash concrete” (Boral Material Technologies Inc., priority 2003, dated 2011).
Read-outs that look alike come from different tables or passages of the source.

Test: Second sacrificial agent testing protocol: paste air measurements with DDBS (0.0125 wt %) and rating; on Overall performance rating (second protocol rating): key: 0: Fail; 1: Poor; 2: Good; 3: Preferred; 4: Most preferred; on SA Rating (0-4): key: 0: Fail; 1: Poor; 2: Good; 3: Preferred; 4: Most preferred
Description: The second sacrificial agents evaluation protocol has been designed to assess the relative potential value of candidate sacrificial agents with a maximum of five paste air measurements.
The first two measurements (of entrained air) are carried out with a standard AEA in a portland cement paste and in a FA:cement paste; these two tests provide reference values which can be used for the relative assessment of a series of sacrificial agents. The other three paste air measurements pertain to the properties and effectiveness of the sacrificial agents.
1. Measurement of the air entrained by a standard air-entraining admixture in a cement paste of fixed composition and fluidity; the latter is a reference system which provides ‘reference’ air entrainment values (‘A’ in FIG. 8).
2. […] The difference between ‘B’ and ‘A’ in FIG. 8 is the reduction in air entrainment due to the presence of the fly ash; this is illustrated as ‘C’ in FIG. 8.
In the present SA testing and evaluation protocol, the fly ash selected should remain the same for the entire set of additives tested, in order to provide reliable relative performance ranking. For the present series of test, the Fly Ash selected was the one identified as B1 in Table 1 below; the physico-chemical properties of this fly ash are reported in Table 1.
In testing for the relative performance of the sacrificial agent, the sacrificial agent dosage was chosen in the range 0-0.1 wt %, which corresponds to typical dosage values observed in paste, mortar and concrete tests reported in Tables 2, 3 and 4 and Tables 7 to 34.
3. Measurement of the air entrainment of the SA, by itself, in a cement-only paste at a dosage of 0.1 wt %; this is illustrated as ‘D’ in FIG. 8.
4. Measurement of the air entrained by DDBS in the FA-cement paste comprising 0.05% wt SA, under the same conditions as described in 2 above. The air entrainment value observed in this system, compared to that observed in the absence of the SA, yields the air recovery due to the SA, and is illustrated schematically as ‘E’ in FIG. 8.
5. Same as in 4 above, but with a higher SA concentration at 0.1 wt %; the air entrainment observed, again compared to the value observed in the absence of the SA, yields a second value of air recovery by the SA and is illustrated as ‘F’ in FIG. 8.
For the relative performance rating of the group of products chosen as potential SA and listed in Table 36, the following rating scheme (Tables A and B) was adopted (referring to FIG. 8 and quantities defined therein):
1: Chemical name of compound tested as potential sacrificial agent • Col. 2: Level of air entrainment by the candidate sacrificial agent, at a concentration of 0.1 wt %, in a Portland cement paste ([…]) • Col. […] 5: Sacrificial agent overall rating index (described below) • Col. 6: Hydrophilic-Lipophilic Balance (HLB) values of candidate sacrificial agent (source and significance of HLB data given below) • Col. 7: Logarithm of the Oil(octanol)/water partition coefficient (Kow) of the candidate sacrificial agents (source and significance of data given below).

[1] = Portland cement paste (PCA), […]
[2] = sacrificial agent overall rating index
[3] = B1 FA/cement paste, 0.0125 wt % DDBS, 0.05 wt % SA
[4] = B1 FA/cement paste, 0.0125 wt % DDBS, 0.10 wt % SA

Molecule | B1 + 0.0125% DDBS + 0.05% SA (air entrainment) (B1 FA/cement paste, […]) | B1 + 0.0125% DDBS + 0.1% SA (air entrainment) (B1 FA/cement paste, […]) | PCA + 0.1% SA (level of air entrainment by the candidate sacrificial agent) [1] | SA Rating (0-4) [2] | B1 + 0.0125% DDBS + 0.05% SA (air entrainment) [3] | B1 + 0.0125% DDBS + 0.1% SA (air entrainment) [4] | B1 + 0.0125% DDBS + 0.05% SA (air entrainment) | B1 + 0.0125% DDBS + 0.1% SA (air entrainment) | Overall performance rating (second protocol rating) | PCA + 0.1% SA (level of air entrainment by the candidate sacrificial agent) | SA Rating (0-4) | Overall performance rating (second protocol rating) (sum of ratings of air entrainment recovery by 0.05% and 0.1% SA, DDBS 0.0125 wt %, 50:50 B1 fly ash:cement paste)
Cl.NCC(N)C(=O)O (centres unmarked) | 1.7 | 1.9 | 0.3 | 0 |  |  |  |  |  |  |  | 
Nc1c(O)cc(S(=O)(=O)[O-])c2ccccc12.[Na+] |  |  | 0.4 | 0 | 3.1 | 2.9 |  |  |  |  |  | 
O=S(=O)([O-])c1cc(O)c2c(O)cc(S(=O)(=O)[O-])cc2c1.[Na+].[Na+] | 2.0 | 2.5 | 0.0 | 0 |  |  |  |  |  |  |  | 
1-Octanol |  |  | 0.0 | 0 | 2.1 | 1.4 |  |  |  |  |  | 
CCCCO [1-Butanol] |  |  |  |  |  |  | 5.9 | 6.5 | 4 | 1.2 | 4 | 
CCCCCCCCCCO [1-Decanol] | 2.1 | 1.7 | 0.0 | 0 |  |  |  |  |  |  |  | 
CCN1CCCC1=O [1-Ethyl-2-Pyrrolidinone] | 4.3 | 5.6 | 2.5 | 3 |  |  |  |  | 3 |  |  | 
CN1CCCC1=O [1-Methyl-2-Pyrrolidinone] |  |  | 1.9 | 0 | 3.6 | 3.8 |  |  |  |  |  | 
CCCCCO [1-Pentanol] | 4.9 | 4.7 | 0.9 | 3 |  |  |  |  | 3 |  |  | 
CC(O)C(C)O (centres unmarked) [2,3-Butanediol] | 3.6 | 3.7 | 1.2 | 0 |  |  |  |  |  |  |  | 
O=C(O)c1cc(O)ccc1O [2,5-Dihydroxybenzoic acid] | 1.9 | 1.6 | 0.0 | 0 |  |  |  |  |  |  |  | 
O=S(=O)([O-])c1ccc2cc(S(=O)(=O)[O-])ccc2c1.[Na+].[Na+] [2,6-naphthalene disulfonate Na] |  |  |  |  |  |  | 2.3 | 3.0 |  | 0.0 | 0 | 
NCCOCCO [2-(2-Aminoethoxy)ethanol] |  |  | 0.5 | 1 | 3.1 | 3.9 |  |  |  |  |  | 1
CCC(C)O (centres unmarked) [2-Butanol] |  |  |  |  |  |  | 6.0 | 6.6 | 4 | 1.4 | 4 | 
CCC(C)=O [2-Butanone (Methyl ethyl ketone)] | 3.7 | 4.1 | 0.3 | 1 |  |  |  |  |  |  |  | 
